From ChEMBL document CHEMBL3217485, “Understanding and overcoming aminoglycoside resistance caused by N-6'-acetyltransferase” (Medchemcomm, 2012)
Converted amounts (≈) assume the structure as drawn. Each block holds one molecule with its values, some of them ahead of it.

What was measured:
[1] = Inhibition of AAC(6')-ly (unknown origin) in presence of ribostamycin
[2] = Inhibition of AAC(6')-ly (unknown origin) in presence of kanamycin A
[3] = Inhibition of AAC(6')-lb (unknown origin)
[4] = Binding affinity to AAC(6')-lb (unknown origin)
[5] = Activity at AAC(6')-li (unknown origin)
[6] = Binding affinity to biotinylated Escherichia coli 16S rRNA A-site
[7] = tested on: Escherichia coli; assay: Antibacterial activity against Escherichia coli ATCC 25922; format: functional
[8] = Ratio of Kcat to Km for AAC(6')-li (unknown origin)

Kii [1]: 92 µM
Kis [1]: 17 µM
Kii [2]: 23 µM
Kis [2]: 31 µM
Compound: N=C(N)N[C@H]1[C@@H](O[C@H]2[C@H](O[C@@H]3O[C@H](CO)[C@@H](O)[C@H]3O)[C@@H](O)[C@H](NC(=N)N)C[C@@H]2NC(=N)N)O[C@H](CNC(=O)CCN)[C@@H](O)[C@@H]1O

Ki [3]: 500 nM
Kd [4]: 950 nM
Compound: CC(C)(COP(=O)(O)OP(=O)(O)OC[C@H]1O[C@@H](n2cnc3c(N)ncnc32)[C@H](O)[C@@H]1OP(=O)(O)O)[C@@H](O)C(=O)NCCC(=O)NCCSCC(=O)NCc1ccc(O[C@H]2C[C@H](N)C[C@@H]2N)cc1

Km [5]: 28.7 µM
kcat [5]: 0.26 s⁻¹
MIC [7]: 6.25 µM (≈ 5.46 µg/mL)
kcat/Km [8]: 0.93 ×10⁴ /M/s
Compound: CN(CCCCN(C)C[C@@H](O)CO[C@@H]1[C@@H](O)[C@H](N)C[C@H](N)[C@H]1O[C@H]1O[C@H](CN)[C@@H](O)[C@H](O)[C@H]1N)C[C@@H](O)CO[C@@H]1[C@@H](O)[C@H](N)C[C@H](N)[C@H]1O[C@H]1O[C@H](CN)[C@@H](O)[C@H](O)[C@H]1N
Kd [6]: 40 nM
